Publication PMC8508980, “Design, Synthesis and Anticancer Profile of New 4-(1H-benzo[d]imidazol-1-yl)pyrimidin-2-amine-Linked Sulfonamide Derivatives with V600EBRAF Inhibitory Effect” (International Journal of Molecular Sciences, 2021)

Experiments:
[1] = test system: melanoma cancer cell lines; assay: NCI 60 screen, sub-panel mean; format: cell-based, human; details: NCI-60, melanoma sub-panel
Protocol: (§1) Anticancer profiling over a panel of 60 cancer cell lines was carried out at the National Cancer Institute (NCI), Bethesda, Maryland, USA, https://dtp.cancer.gov/discovery_development/nci-60/methodology.htm (Last visit 22 September 2021), using the standard procedure (detailed procedure is located in the Supplementary Information page 50 s).
(§2) NCI standard procedure for 60 cell lines assay
(§3) The human tumor cell lines of the cancer screening panel are grown in RPMI 1640 mediu m containing 5% fetal bovine serum and 2 mM L-glutamine. For a typical screening experiment, cells are inoculated into 96 well microtiter plates in 100 μL at plating densities ranging from 5,000 to 40,000 cells/well depending on the doubling time of individual cell lines. After cell inoculation, the microtiter plates are incubated at 37° C, 5 % CO2, 95 % air and 100 % relative humidity for 24 h prior to addition of experimental drugs.
(§4) After 24 h, two plates of each cell line are fixed in situ with TCA, to represent a measurement of the cell population for each cell line at the time of drug addition (Tz). Experimental drugs are solubilized in dimethyl sulfoxide at 400-fold the desired final maximum test concentration (10 µM) and stored frozen prior to use. At the time of drug addition, an aliquot of frozen concentrate is thawed and diluted to twice the desired final maximum test concentration with co mp lete medium containing 50 μg/ml gentamicin. Additional four, 10-fold or ½ log serial dilutions are made to provide a total of five drug concentrations plus control. Aliquots of 100 μl of these different drug dilutions are added to the appropriate microtiter wells already containing 100 μl of medium, resulting in the required final drug concentrations.
(§5) Following drug addition, the plates are incubated for an additional 48 h at 37°C, 5 % CO2, 95 % air, and 100 % relative humidity. For adherent cells, the assay is terminated by the addition of cold TCA. Cells are fixed in situ by the gentle addition of 50 μl of cold 50 % (w/v) TCA (final concentration, 10 % TCA) and incubated for 60 minutes at 4°C. The supernatant is discarded, and the plates are washed five times with tap water and air dried. Sulforhodamine B (SRB) solution (100 μl) at 0.4 % (w/v) in 1 % acetic acid is added to each well, and plates are incubated for 10 minutes at room temperature. After staining, unbound dye is removed by washing five times with 1 % acetic acid and the plates are air dried. Bound stain is subsequently solubilized with 10 mM trizma base, and the absorbance is read on an automated plate reader at a wavelength of 515 nm. For suspension cells, the methodology is the same except that the assay is terminated by fixing settled cells at the bottom of the wells by g ently adding 50 μl of 80 % TCA (final concentration, 16 % TCA). Using the seven absorbance measurements [time zero, (Tz), control growth, (C), and test growth in the presence of drug at the five concentration levels (Ti)], the percentage growth is calculated at each of the drug concentrations levels. Percentage growth inhibition is calculated as:
(§6) [(Ti-Tz)/(C-Tz)] x 100 for concentrations for which Ti>/=Tz
(§7) [(Ti-Tz)/Tz] x 100 for concentrations for which Ti<Tz.
(§8) Three dose response parameters are calculated for each experimental agent. Growth inhibition of […]
(§9) resulting in a 50% reduction in the net protein increase (as measured by SRB staining) in control cells during the drug incubation. The drug concentration resulting in total growth inhibition […]
(§10) (TGI) is calculated from Ti = Tz.

[2] = test system: renal cancer cell lines; assay: NCI 60 screen, sub-panel mean; format: cell-based, human; details: NCI-60, renal cancer sub-panel
Protocol: as §1, §2, §3, §4, §5, §6, §7, §8, §9, §10

[3] = test system: breast cancer cell lines; assay: NCI 60 screen, sub-panel mean; format: cell-based, human; details: NCI-60, breast cancer sub-panel
Protocol: as §1, §2, §3, §4, §5, §6, §7, §8, §9, §10

[4] = test system: colon cancer cell lines; assay: NCI 60 screen, sub-panel mean; format: cell-based, human; details: NCI-60, colon cancer sub-panel
Protocol: as §1, §2, §3, §4, §5, §6, §7, §8, §9, §10

[5] = test system: CNS cancer cell lines; assay: NCI 60 screen, sub-panel mean; format: cell-based, human; details: NCI-60, CNS sub-panel
Protocol: as §1, §2, §3, §4, §5, §6, §7, §8, §9, §10

[6] = test system: prostate cancer cell lines; assay: NCI 60 screen, sub-panel mean; format: cell-based, human; details: NCI-60, prostate cancer sub-panel
Protocol: as §1, §2, §3, §4, §5, §6, §7, §8, §9, §10

[7] = test system: ovarian cancer cell lines; assay: NCI 60 screen, sub-panel mean; format: cell-based, human; details: NCI-60, ovarian cancer sub-panel
Protocol: as §1, §2, §3, §4, §5, §6, §7, §8, §9, §10

[8] = test system: NCI 60 cancer cell lines; assay: NCI 60 cell line screen, mean over panel; format: cell-based, human
Protocol: as §1, §2
The human tumor cell lines of the cancer screening panel are grown in RPMI 1640 mediu m containing 5% fetal bovine serum and 2 mM L-glutamine. […]
Following drug addition, the plates are incubated for an additional 48 h at 37°C, 5 % CO2, 95 % air, and 100 % relative humidity. […] Bound stain is subsequently solubilized with 10 mM trizma base, and the absorbance is read on an automated plate reader at a wavelength of 515 nm. […] Using the seven absorbance measurements [time zero, (Tz), control growth, (C), and test growth in the presence of drug at the five concentration levels (Ti)], the percentage growth is calculated at each of the drug concentrations levels. Percentage growth inhibition is calculated as: […]
Three dose response parameters are calculated for each experimental agent. […]
resulting in a 50% reduction in the net protein increase (as measured by SRB staining) in control cells during the drug incubation. […]
as §10

[9] = test system: T-47D cells; assay: MTT assay IC50 over T-47D; format: cell-based; details: Homo sapiens, T47D
Protocol: (§11) In the beginning, the IC50 of compound 12e over T-47D (American Type Culture Collection, US) was determined using MTT assay, and the same procedure was applied for A375 and SK-MEL-5. T-47D cells (10^5 cells) were treated with 12e (5 µM) and incubated for 48h. Cells were collected by trypsinization, washed two times with ice-cold PBS, and re-suspended in 60% cold ethanol and kept at 4 °C for 60 min. PBS was used to wash the fixed cells and was re-suspended in 1.0 mL of PBS containing 10µg/mL propidium iodide and 50 µg/mL RNAase A. Cells were incubated in the dark at 37 °C for 20min; then, DNA contents were analyzed using flow cytometric analysis using an FL2 (λex/em 535/617 nm) signal detector. For each sample, 12,000 events were acquired. The cell cycle distribution was obtained by using ACEA NovoExpress^TM software.

[10] = test system: T-47D cells; assay: Cell cycle analysis by flow cytometry (propidium iodide); format: cell-based; details: 5 µM
Protocol: The distribution of cell cycle was determined by flow cytometric assay after using propidium iodide to stain the DNA content of the treated cells. […] Meanwhile, the cells of the G2-phase decreased to 6% compared to 8% in the untreated cells.
as §11, with “T-47D cells (10^5 cells) were treated with 12e (5 µM) and incubated for 48h.” left out

O=S(=O)(NCCNc1nccc(-n2cnc3ccccc32)n1)c1ccc(C(F)(F)F)cc1 [12e, N-(2-((4-(1H-benzo [d]imidazol-1-yl)pyrimidin-2-yl)amino)ethyl)-4-(trifluoromethyl)benzenesulfonamide]
mean percent inhibition [1]: 50%
mean percent inhibition [2]: 45%
mean percent inhibition [3]: more than 60%
mean percent inhibition [4]: 40%
mean percent inhibition [5]: 50%
mean percent inhibition [6]: 40%
mean percent inhibition [7]: 40%
mean percent inhibition over 60-cell line panel [8]: around 50%
IC50 [9]: 5.35 µM
cells in S-phase, treated cells ([10]; control 14%): 18%
cells in G1 phase, treated cells ([10]; control 29%): 31%
cells in G2-phase, treated cells ([10]; untreated 8%): 6%

Cc1ccc(S(=O)(=O)NCCNc2nccc(-n3cnc4ccccc43)n2)cc1 [12g, N-(2-((4-(1H-benzo [d]imidazol-1-yl)pyrimidin-2-yl)amino)ethyl)-4-methyl benzenesulfonamide]
mean percent inhibition [2]: around 30%
mean percent inhibition [3]: around 40%
mean percent inhibition [6]: around 20%
mean percent inhibition [7]: around 25%

O=S(=O)(NCCCNc1nccc(-n2cnc3ccccc32)n1)c1ccc(F)cc1 [12i, N-(3-((4-(1H-benzo [d]imidazol-1-yl)pyrimidin-2-yl)amino)propyl)-4-fluorobenzenesulfonamide]
mean percent inhibition [3]: around 40%
mean percent inhibition [6]: around 20%
mean percent inhibition [7]: around 25%

O=S(=O)(NCCCNc1nccc(-n2cnc3ccccc32)n1)c1ccc(C(F)(F)F)cc1 [12l, N-(3-((4-(1H-benzo [d]imidazol-1-yl)pyrimidin-2-yl)amino)propyl)-4-(trifluoromethyl) benzenesulfonamide]
mean percent inhibition [2]: around 30%
mean percent inhibition [3]: around 40%
mean percent inhibition [4]: 30%
mean percent inhibition [6]: around 20%
mean percent inhibition [7]: around 25%

O=S(=O)(NCCCNc1nccc(-n2cnc3ccccc32)n1)c1cccc2ccccc12 [12n, N-(3-((4-(1H-benzo [d]imidazol-1-yl)pyrimidin-2-yl)amino)propyl)naphthalene-1-sulfonamide]
mean percent inhibition [6]: around 20%
